Experimental data as given in patent US20240360247A1, “COMPOSITIONS AND METHODS FOR TREATMENT OF CANCER” (Johns Hopkins University, priority 2021, published 2024).

Tests used:
HCT-116 cells [1] = test: Effect of D-PDMP on cell proliferation (3H-thymidine incorporation); assay type: cell-based, human
Method: HCT-116 cells were seeded (10^4/well) in 96-well sterile plastic plates, and grown for 24 h in complete medium, with 10% fetal calf serum. The media was then replaced with 2% serum-containing media (100 μL) plus ^3H-thymidine ([…]), with and without D-PDMP. After another 24 h incubation, incorporation of ^3H-thymidine into DNA was measured by scintillation spectrometry.

HCT-116 cells [2] = test: LC-MS sphingolipid levels in HCT-116 cells; assay type: cell-based, human; conditions: D-PDMP 10 μM, 24 h, vs control
Method: HCT-116 cells were seeded ([…]) onto sterilized (100-mm^2) plastic Petri dishes in 10 mL of medium for 24 h. Media was then changed to 2% serum-containing media, with and without D-PDMP (10 μM). After 24 h, media was removed, and total lipids were extracted, using hexane-isopropanol (3:2, by volume) in the presence of sphingolipid internal standards, and subject to MS. […] Data represent averages±SEm, N=3 biological replicates for control and 10 μM D-PDMP in (FIGS. 4A-4H), and the unpaired t-tested was used for statistical analysis.*P≤0.05,**P≤0.01]\
Sphingolipid levels in human CRC tissue and in human cultured CRC cells (HCT-116) were measured by LC-MS, as described previously (23). Visibly normal and CRC tissues (50 mg) were homogenized in chloroform-methanol (2:1), in the presence of sphingolipid internal standards. […] HCT-116 cells were grown in 100 mm^2 sterile, plastic Petri dishes. Lipid extracts were subject to LC-MS, as described (24, 25).

renal cancer = conditions: mouse, in vivo; cited from earlier work
[3] = system: human colorectal cancer cells (HCT-116); test: [89Zr] GalT-V antibody binding and internalization (gamma counter); assay type: cell-based; conditions: HCT-116 pre-incubated with D-PDMP 20 uM
Method: Cell cultures were incubated with increasing concentrations of [^89Zr] GalT-V antibody, washed and radioactivity was measured in an automated gamma counter (1282 Compu-gamma CS, Pharmacia/LKB Nuclear, Inc.).
Cell cultures were incubated with increasing concentrations of [^89Zr] GalT-V antibody, washed and radioactivity was measured in a gamma counter. […] GalT-V antibody binding in human coronary arterial endothelial cells (HCAEC) and human colorectal cancer cells (HCT-116) after 2-hour incubation at 37° C.
Cells were pre-incubated with and without an inhibitor of GalT-V, D-PDMP (20 uM), followed by the measurement of binding and internalization of [^89Zr] GalT-V antibody. […] GalT-V antibody (n=3, p**=0.0079).
Cells were incubated in the presence of excess unlabeled (cold, 50 ug/mL) GalT-V antibody as well as [^89Zr] GalT-V Ab. […] (n=3, p****=<0.0001). Results are shown in FIG. 24 which depicts specificity of binding and internalization of [^89Zr] GalT-V antibody in human colorectal cancer cells (HCT-116).

β-1,4-GalT-V = target: T1, β-1,4-GalT-V (Homo sapiens, UniProt O43286); test: Effect of D-PDMP on IHC localization of glycosyltransferases in human CRC cells (β-1,4-GalT-V); assay type: cell-based; conditions: HCT-116, D-PDMP, 24 and 96 h, vs controls
T1 construct: endogenous in cells; host or cells: HCT-116
T1 sequence (O43286 1-388): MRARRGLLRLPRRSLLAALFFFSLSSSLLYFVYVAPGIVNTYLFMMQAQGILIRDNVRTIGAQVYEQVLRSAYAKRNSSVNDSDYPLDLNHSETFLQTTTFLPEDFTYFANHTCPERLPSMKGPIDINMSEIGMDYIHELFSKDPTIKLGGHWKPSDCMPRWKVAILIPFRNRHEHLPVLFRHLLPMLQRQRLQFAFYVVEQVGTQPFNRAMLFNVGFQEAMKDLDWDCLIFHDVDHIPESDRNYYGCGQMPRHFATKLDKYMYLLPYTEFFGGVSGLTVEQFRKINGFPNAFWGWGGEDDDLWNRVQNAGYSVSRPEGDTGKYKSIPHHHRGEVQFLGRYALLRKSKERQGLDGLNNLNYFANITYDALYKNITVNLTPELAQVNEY
Method: (§1) HCT-116 cells were seeded (10^4) onto sterilized glass coverslips, which were then placed in 6-well sterile plastic trays and grown for 24 h in complete media. Next, the media was replaced with 2 mL of 2% serum-containing media, plus […] D-PDMP. After incubation for 24 and 96 h, the media was removed, and cells were fixed with ethanol, washed, incubated with antibody against β-1,4-GalT-V or UGCG, and photographed.

human endothelial cells = conditions: cited from earlier work
UGCG = target: T2, UGCG (Homo sapiens, UniProt Q16739); test: Effect of D-PDMP on IHC localization of glycosyltransferases in human CRC cells (UGCG); assay type: cell-based; conditions: HCT-116, 10p M D-PDMP, 24 h, vs control
T2 construct: endogenous in cells; host or cells: HCT-116
T2 sequence (Q16739 1-394): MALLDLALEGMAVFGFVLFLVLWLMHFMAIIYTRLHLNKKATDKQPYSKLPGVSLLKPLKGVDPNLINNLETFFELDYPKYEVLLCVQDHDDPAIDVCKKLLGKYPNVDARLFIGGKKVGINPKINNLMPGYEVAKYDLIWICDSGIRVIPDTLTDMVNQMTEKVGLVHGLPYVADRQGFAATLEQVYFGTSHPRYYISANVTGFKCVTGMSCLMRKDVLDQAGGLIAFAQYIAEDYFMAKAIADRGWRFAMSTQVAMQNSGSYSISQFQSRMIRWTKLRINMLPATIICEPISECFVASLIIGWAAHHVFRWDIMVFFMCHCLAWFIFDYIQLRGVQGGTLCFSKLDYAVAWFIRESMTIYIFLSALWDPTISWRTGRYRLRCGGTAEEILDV
Method: as §1

GalT-V fluorescence (β-1,4-GalT-V): reduced GalT-V fluorescence
UGCG immunofluorescence (UGCG): No difference
SMILES: CCCCCCCCCC(=O)N[C@H](CN1CCOCC1)[C@H](O)c1ccccc1 [D-PDMP, D-threo-1-phenyl-2-decanoylamino-3-morpholino-1-propanol]
proliferation of HCT-116 cells (HCT-116 cells [1]; 24 and 96 h, compared to control cells): dose- and time-dependent (FIGS. 3A, 3B) decrease in proliferation
maximal effective dose (decrease in proliferation) (HCT-116 cells [1]; HCT-116, 24 and 96 h): 20 µM
level of Cer (HCT-116 cells [2]): reduced levels
level of DHCer (HCT-116 cells [2]): reduced levels
level of DHLacCer (HCT-116 cells [2]): reduced levels
level of dihexosylceramide (HCT-116 cells [2]): reduced levels
level of dihydroGalCer/dihydroGlcCer (HCT-116 cells [2]): reduced levels
level of monohexosylceramides (HCT-116 cells [2]): reduced levels
GalT-V mass (renal cancer): markedly reduced
tumor volume (renal cancer): markedly reduced tumor volume
effect on binding and internalization of [89Zr] GalT-V antibody [3]: reduced the binding and internalization
angiogenesis (human endothelial cells): reduced angiogenesis
